In ChEMBL document CHEMBL1123903, “Synthesis and antimalarial effects of 4-[(7-chloro-4-quinolinyl)amino]-2-[(diethylamino)methyl] -6-alkylphenols and their N omega-oxides” (1987):

Key:
Format in all cases: functional
Plasmodium berghei [1] = test: Change in mean survival time of trophozoite-induced Plasmodium berghei infection after 40 mg/kg subcutaneous dose
Plasmodium berghei [2] = test: Change in mean survival time of trophozoite-induced Plasmodium berghei infection after 20 mg/kg subcutaneous dose
Mus musculus [3] = test: Number of mice surviving at 60 days postinfection when administered as a single dose of 160 mg/kg (sc) 72-h post infection
Mus musculus [4] = test: Number of mice surviving at 60 days postinfection when administered as a single dose of 640 mg/kg (sc) 72-h post infection
Mus musculus [5] = test: Number of mice surviving at 60 days postinfection when administered as a single dose of 320 mg/kg (sc) 72-h post infection
Mus musculus [6] = test: Number of mice surviving at 60 days postinfection when administered as a single dose of 80 mg/kg (sc) 72-h post infection
Mus musculus [7] = test: Antimalarial activity tested against trophozoite induced Plasmodium berghei in mice (Mus musculus) expressed as change in mean survival time after a single dose of 640 mg/kg (subcutaneously); conditions: route subcutaneous
Plasmodium berghei [8] = test: Change in mean survival time of trophozoite-induced Plasmodium berghei infection after 160 mg/kg subcutaneous dose
Plasmodium berghei [9] = test: Change in mean survival time of trophozoite-induced Plasmodium berghei infection after 80 mg/kg subcutaneous dose
Mus musculus [10] = test: Antimalarial activity tested against trophozoite induced Plasmodium berghei in mice (Mus musculus) expressed as change in mean survival time after a single dose of 320 mg/kg (subcutaneously); conditions: route subcutaneous
Mus musculus [11] = test: Number of mice surviving at 60 days postinfection when administered as a single dose of 160 mg/kg (sc) 72-h post infection (delta MST)
Mus musculus [12] = test: Number of mice surviving at 60 days postinfection when administered as a single dose of 320 mg/kg (sc) 72-h post infection (delta MST)
Mus musculus [13] = test: Antimalarial activity tested against trophozoite induced Plasmodium berghei in mice (Mus musculus) expressed as change in mean survival time after a single dose of 10 mg/kg (subcutaneously); conditions: route subcutaneous
Mus musculus [14] = test: Number of mice surviving at 60 days postinfection when administered as a single dose of 80 mg/kg (sc) 72-h post infection (delta MST)
Mus musculus [15] = test: Number of mice surviving at 60 days postinfection when administered as a single dose of 40 mg/kg (sc) 72-h post infection (delta MST)
[16] = Antimalarial activity tested against trophozoite induced Plasmodium berghei in mice (Mus musculus) expressed as change in mean survival time after a single dose of 40 mg/kg (subcutaneously); conditions: route subcutaneous
Mus musculus [17] = test: Number of mice surviving at 60 days postinfection when administered as a single dose of 640 mg/kg (sc) 72-h post infection (delta MST)
Mus musculus [18] = test: Number of deaths when administered as a single dose of 320 mg/kg (sc) 72-h postinfection in mice
Mus musculus [19] = test: Number of deaths when administered as a single dose of 640 mg/kg (sc) 72-h postinfection in mice
Mus musculus [20] = test: Number of mice surviving at 60 days postinfection when administered as a single dose of 20 mg/kg (sc) 72-h post infection (delta MST)

## CCN(CC)Cc1cc(Nc2ccnc3cc(Cl)ccc23)ccc1O.Cl
Plasmodium berghei [1]
  Delta MST: 11.9 days
Plasmodium berghei [2]
  Delta MST: 8.3 days
Mus musculus [3]
  Cures: 5
Mus musculus [4]
  Cures: 5
Mus musculus [5]
  Cures: 5
Mus musculus [6]
  Cures: 2

## CCN(CC)Cc1cc(Nc2cc[n+]([O-])c3cc(Cl)ccc23)cc(Sc2ccc(Cl)cc2)c1O
Plasmodium berghei [1]
  Delta MST: 4.1 days
Plasmodium berghei [2]
  Delta MST: 0.5 days
Mus musculus [7]
  Delta MST: 14.4 days
Plasmodium berghei [8]
  Delta MST: 7.6 days
Plasmodium berghei [9]
  Delta MST: 3.4 days
Mus musculus [10]
  Delta MST: 9 days

## CCN(CC)Cc1cc(Nc2cc[n+]([O-])c3cc(Cl)ccc23)cc(C2CCCCC2)c1O
Plasmodium berghei [1]
  Delta MST: 3.9 days
Plasmodium berghei [2]
  Delta MST: 0.5 days
Plasmodium berghei [8]
  Delta MST: 22.4 days
Plasmodium berghei [9]
  Delta MST: 8.5 days
Mus musculus [11]
  Cures: 3
Mus musculus [12]
  Cures: 4
Mus musculus [4]
  Cures: 5
Mus musculus [10]
  Delta MST: 24.9 days

## CCN(CC)Cc1cc(Nc2ccnc3cc(Cl)ccc23)cc(C(C)(C)C)c1O
Plasmodium berghei [1]
  Delta MST: 0.5 days
Plasmodium berghei [2]
  Delta MST: 0.1 days
Mus musculus [7]
  Delta MST: 6.3 days
Plasmodium berghei [8]
  Delta MST: 1.9 days
Plasmodium berghei [9]
  Delta MST: 1.7 days
Mus musculus [10]
  Delta MST: 5.9 days

## CCN(CC)Cc1cc(Nc2cc[n+]([O-])c3cc(Cl)ccc23)cc(C(C)(C)C)c1O
Plasmodium berghei [1]
  Delta MST: 1.7 days
Plasmodium berghei [2]
  Delta MST: 0.1 days
Mus musculus [7]
  Delta MST: 6.1 days
Plasmodium berghei [8]
  Delta MST: 4.1 days
Plasmodium berghei [9]
  Delta MST: 2.9 days
Mus musculus [13]
  Delta MST: 3.7 days
Mus musculus [10]
  Delta MST: 6.7 days

## CCc1cc(Nc2cc[n+]([O-])c3cc(Cl)ccc23)cc(CN(CC)CC)c1O
Mus musculus [14]
  Cures: 3
Plasmodium berghei [1]
  Delta MST: 13.2 days
Plasmodium berghei [2]
  Delta MST: 5.5 days
Mus musculus [7]
  Delta MST: 1.4 days
Plasmodium berghei [8]
  Delta MST: 13.4 days
Plasmodium berghei [9]
  Delta MST: 10.9 days
Mus musculus [11]
  Cures: 2
Mus musculus [12]
  Cures: 3
Mus musculus [4]
  Cures: 4
Mus musculus [13]
  Delta MST: 3.7 days
Mus musculus [15]
  Cures: 1
Mus musculus [10]
  Delta MST: 13.4 days

## CCN(CC)Cc1cc(Nc2ccnc3cc(Cl)ccc23)c2c(c1O)CCCC2
Mus musculus [14]
  Cures: 2
Plasmodium berghei [1]
  Delta MST: 12.8 days
Plasmodium berghei [2]
  Delta MST: 12.6 days
Plasmodium berghei [8]
  Delta MST: 15.1 days
Plasmodium berghei [9]
  Delta MST: 14.8 days
Mus musculus [11]
  Cures: 2
Mus musculus [12]
  Cures: 3
Mus musculus [4]
  Cures: 3
Mus musculus [13]
  Delta MST: 6.8 days
Mus musculus [15]
  Cures: 2
Mus musculus [10]
  Delta MST: 28.3 days

## CCN(CC)Cc1cc(Nc2ccnc3cc(Cl)ccc23)cc(C(C)C)c1O
Mus musculus [14]
  Cures: 4
Plasmodium berghei [1]
  Delta MST: 27.9 days
Plasmodium berghei [2]
  Delta MST: 18.1 days
Plasmodium berghei [9]
  Delta MST: 25.4 days
Mus musculus [3]
  Cures: 5
Mus musculus [4]
  Cures: 5
Mus musculus [13]
  Delta MST: 11.1 days
Mus musculus [5]
  Cures: 5
Mus musculus [15]
  Cures: 3

## CCN(CC)Cc1cc(Nc2ccnc3cc(Cl)ccc23)cc(Cc2ccccc2)c1O
Plasmodium berghei [1]
  Delta MST: 1.7 days
Plasmodium berghei [2]
  Delta MST: 0.2 days
Mus musculus [7]
  Delta MST: 7.9 days
Plasmodium berghei [8]
  Delta MST: 3.7 days
Plasmodium berghei [9]
  Delta MST: 3.4 days
Mus musculus [10]
  Delta MST: 7.8 days

## CCc1cc(Nc2ccnc3cc(Cl)ccc23)cc(CN(CC)CC)c1O
Mus musculus [14]
  Cures: 2
Plasmodium berghei [2]
  Delta MST: 12.1 days
Mus musculus [7]
  Delta MST: 27.4 days
Plasmodium berghei [8]
  Delta MST: 14.4 days
Plasmodium berghei [9]
  Delta MST: 20.7 days
Mus musculus [11]
  Cures: 4
[16]
  Delta MST: 12.4 days
Mus musculus [17]
  Cures: 4
Mus musculus [12]
  Cures: 4
Mus musculus [13]
  Delta MST: 6.1 days
Mus musculus [15]
  Cures: 1
Mus musculus [10]
  Delta MST: 34.4 days

## CCN(CC)Cc1cc(Nc2cc[n+]([O-])c3cc(Cl)ccc23)cc(C)c1O
Mus musculus [14]
  Cures: 1
Plasmodium berghei [1]
  Delta MST: 14.3 days
Plasmodium berghei [2]
  Delta MST: 7.6 days
Plasmodium berghei [8]
  Delta MST: 13 days
Plasmodium berghei [9]
  Delta MST: 11.5 days
Mus musculus [11]
  Cures: 3
Mus musculus [12]
  Cures: 3
Mus musculus [4]
  Cures: 5
Mus musculus [13]
  Delta MST: 1.4 days
Mus musculus [15]
  Cures: 2
Mus musculus [10]
  Delta MST: 19 days

## CCN(CC)Cc1cc(Nc2ccnc3cc(Cl)ccc23)cc(C)c1O
Mus musculus [14]
  Cures: 4
Plasmodium berghei [1]
  Delta MST: 13 days
Plasmodium berghei [2]
  Delta MST: 10.4 days
Plasmodium berghei [8]
  Delta MST: 20.7 days
Plasmodium berghei [9]
  Delta MST: 13.7 days
Mus musculus [11]
  Cures: 4
Mus musculus [12]
  Cures: 3
Mus musculus [4]
  Cures: 5
Mus musculus [13]
  Delta MST: 7 days
Mus musculus [15]
  Cures: 1
Mus musculus [10]
  Delta MST: 17.2 days

## CCN(CC)Cc1cc(Nc2ccnc3cc(Cl)ccc23)cc(Sc2ccc(Cl)cc2)c1O
Plasmodium berghei [1]
  Delta MST: 7.3 days
Plasmodium berghei [2]
  Delta MST: 3 days
Mus musculus [7]
  Delta MST: 13.1 days
Plasmodium berghei [8]
  Delta MST: 10.1 days
Plasmodium berghei [9]
  Delta MST: 8.8 days

## CCN(CC)Cc1cc(Nc2ccnc3cc(Cl)ccc23)cc(C2CCCCC2)c1O
Mus musculus [14]
  Cures: 2
Plasmodium berghei [1]
  Delta MST: 5.7 days
Plasmodium berghei [2]
  Delta MST: 0.5 days
Plasmodium berghei [9]
  Delta MST: 10.6 days
Mus musculus [3]
  Cures: 5
Mus musculus [4]
  Cures: 5
Mus musculus [5]
  Cures: 5

## CCN(CC)Cc1cc(Nc2cc[n+]([O-])c3cc(Cl)ccc23)cc(C(C)C)c1O
Mus musculus [14]
  Cures: 1
Plasmodium berghei [1]
  Delta MST: 15.5 days
Plasmodium berghei [2]
  Delta MST: 11.8 days
Mus musculus [7]
  Delta MST: 23.7 days
Plasmodium berghei [8]
  Delta MST: 21.7 days
Plasmodium berghei [9]
  Delta MST: 15.5 days
Mus musculus [11]
  Cures: 1
Mus musculus [17]
  Cures: 4
Mus musculus [12]
  Cures: 1
Mus musculus [13]
  Delta MST: 3 days
Mus musculus [15]
  Cures: 1
Mus musculus [10]
  Delta MST: 29.7 days

## CCC(C)c1cc(Nc2ccnc3cc(Cl)ccc23)cc(CN(CC)CC)c1O (stereo not given)
Mus musculus [14]
  Cures: 2
Plasmodium berghei [1]
  Delta MST: 27.7 days
Plasmodium berghei [2]
  Delta MST: 18 days
Plasmodium berghei [8]
  Delta MST: 40.2 days
Plasmodium berghei [9]
  Delta MST: 29.4 days
Mus musculus [11]
  Cures: 1
Mus musculus [4]
  Cures: 5
Mus musculus [13]
  Delta MST: 9.8 days
Mus musculus [5]
  Cures: 5
Mus musculus [15]
  Cures: 2

## CCN(CC)Cc1cc(Nc2cc[n+]([O-])c3cc(Cl)ccc23)cc(Cc2ccccc2)c1O
Plasmodium berghei [1]
  Delta MST: 2 days
Plasmodium berghei [2]
  Delta MST: 0.4 days
Plasmodium berghei [8]
  Delta MST: 5.4 days
Plasmodium berghei [9]
  Delta MST: 4.2 days
Mus musculus [18]
  Deaths: 14
Mus musculus [19]
  Deaths: 14

## CCC(C)c1cc(Nc2cc[n+]([O-])c3cc(Cl)ccc23)cc(CN(CC)CC)c1O (stereo not given)
Plasmodium berghei [1]
  Delta MST: 20.9 days
Plasmodium berghei [2]
  Delta MST: 12.6 days
Plasmodium berghei [8]
  Delta MST: 30 days
Plasmodium berghei [9]
  Delta MST: 21.9 days
Mus musculus [11]
  Cures: 2
Mus musculus [12]
  Cures: 3
Mus musculus [4]
  Cures: 5
Mus musculus [13]
  Delta MST: 4.6 days
Mus musculus [10]
  Delta MST: 39.7 days

## CC(C)(C)NCc1cc(Nc2ccnc3cc(Cl)ccc23)cc(-c2ccc(Cl)cc2)c1O [TEBUQUINE]
Mus musculus [14]
  Cures: 3
Plasmodium berghei [1]
  Delta MST: 19.9 days
Plasmodium berghei [2]
  Delta MST: 14.9 days
Mus musculus [7]
  Delta MST: 17.1 days
Plasmodium berghei [8]
  Delta MST: 14.9 days
Plasmodium berghei [9]
  Delta MST: 14.9 days
Mus musculus [11]
  Cures: 2
Mus musculus [12]
  Cures: 1
Mus musculus [15]
  Cures: 4
Mus musculus [10]
  Delta MST: 16.4 days
Mus musculus [20]
  Cures: 3
